Assay results published in patent US10792287B2, “Methods for treating mitochondrial diseases” (The Regents of the University of California, priority 2015, dated 2020).
Where a name gives a salt, the structure may show the parent alone. Read-outs that look alike come from different tables or passages of the source.

Key:
Ndufs4 KO mice [1] = assay: Microglia activation (Iba1 staining of whole mount retinas); format: in vivo, mouse; conditions: two weeks (P21-P35) intraperitoneal treatment
[2] = system: innate immune/inflammatory response in Ndufs4 KO retina; assay: Retinal gene expression of innate immune and inflammatory markers after drug treatment (Example 3); format: in vivo, mouse; conditions: Ndufs4 KO mice; doses as in drug formulation
Description: The graphs represent RNA expression of B2m (FIG. 21A), Tlr2 (FIG. 21B), Cxc110 (FIG. 21C), Cc15 (FIG. 21D), and Aif1 (FIG. 21E) in the wild type and Ndufs4 knockout retina. Bars represent mean delta Ct values normalized to housekeeping genes, Actb and Mapk1. Error bars represent standard error of the mean. Statistical significance was determined by two-tailed student's t test. * P<0.05, ** P<0.01, **** P<0.0001.
(§1) Wild type and Ndufs4 knockout mice were placed in one of five groups: vehicle, papaverine (20 mg/kg), zolpidem (20 mg/kg), rapamycin (8 mg/kg), or idebenone (200 mg/kg). For papaverine, zolpidem, and rapamycin, drug was dissolved in DMSO which was diluted in 5% PEG-400/5% Tween-20 in PBS. Vehicle contained all components except for the drug. The solution was then sterile filtered and intraperitoneal injections were performed using a 30 gauge needle. Idebenone was administered as a jelly and consumed orally.
We have previously shown that inflammatory gene expression of Aif1, Tlr2, B2m, Cc15, and Cxc110 are all elevated in the Ndufs4 KO mouse compared to wild type by more than 3-fold, indicating an inflammatory pathomechanism of mitochondrial blindness (Yu et al., Proc Natl Acad Sci USA, 2015, 112(42): E5689-98). […] Papaverine, zolpidem, rapamycin, and idebenone were administered to Ndufs4 KO mice to determine whether their protection of vision (FIG. 20) was through an anti-inflammatory mechanism of action. […] Thus, papaverine, zolpidem, and rapamycin appear to protect mitochondrial loss of vision through an antiinflammatory mechanism.

LHON cybrids (11778 G>A) = assay: Complex I-driven ATP synthesis in rotenone-inhibited LHON mutant cybrids (luciferase-based, high-throughput screen and concentration-response); format: cell-based
[3] = system: 11778 (G>A) mutant cybrid; assay: Mitochondrial copy number (MT-TL1/B2M ratio), mutant cybrids; format: cell-based; conditions: LHON mutant cells [11778(G>A)]; 24 hrs exposure
Description: (§2) FIGS. 14A-14C illustrate the effect of drugs on the mitochondrial copy number. Difference of mitochondrial copy number between 11778 (G>A) mutant and control cybrids (FIG. 14A). Effect of zolpidem and papaverine on the control healthy cybrid mitochondrial copy number (FIG. 14B) and 11778 (G>A) mutant cybrid mitochondrial copy number (FIG. 14C). Cells were treated with either vehicle or one of the drugs at specified concentration for 24 h. The cells were harvested after 24 h and the ratio between MT-TL1 and B2M was determined. Data is presented as average relative fold change±std. deviation from three independent observations. Statistical significance (p<0.05) is denoted by ‘*’ and was determined by one way ANOVA and Dunett's post hoc test.

Ndufs4 KO mice [4] = assay: Starburst amacrine cell count (ChAT staining of whole retina); format: in vivo, mouse; conditions: two weeks (P21-P35) intraperitoneal injections
Description: 20× confocal images of whole retina stained with ChAT (marker of starburst amacrine cells) from wild type (FIG. 22A), Ndusf4 KO vehicle treated (FIG. 22B), Ndufs4 KO papaverine treated (FIG. 22C), Ndufs4 KO zolpidem treated (FIG. 22D), and Ndufs4 KO rapamycin treated (FIG. 22E) are shown.
as §1

Ndufs4 knockout mice = assay: Visual cliff test; format: in vivo, mouse; conditions: P21-P35 treatment; papaverine 20 mg/kg, zolpidem 20 mg/kg, rapamycin 8 mg/kg i.p.; idebenone 200 mg/kg oral
control healthy cybrid = assay: Mitochondrial copy number (MT-TL1/B2M ratio), control cybrids; format: cell-based; conditions: control cells; 24 hrs exposure
Description: as §2

[5] = system: 11778 (G>A) mutant lymphoblasts; assay: Effect of rotenone on complex I-driven ATP synthesis in lymphoblasts; format: cell-based; conditions: gender-matched lymphoblasts
Description: (§3) The data is presented as average+standard deviation from three independent experiments and single asterisk signifies the statistical significance (P<0.05) between the control and LHON mutant cells.
For the lymphoblasts, drug-treated cells were centrifuged and resuspended at a concentration of 2×10^6 cells/mL, in the permeabilization buffer containing activated streptolysin O (Sigma). After 10 min incubation at 4° C., the cells were centrifuged and resuspended in transfer buffer at the same concentration. The cells were then incubated at 37° C. for 10 min followed by centrifugation and resuspension in buffer A containing malate (5 mM, Sigma), sodium pyruvate (5 mM, Sigma) and high purity ADP (200 μM, Apollo Scientific). Subsequently, 50 μL of buffer A containing 100,000 cells were plated in each wells of a 96-well plate. After 20 min of incubation at the room temperature the complex I-driven ATP synthesis was measured by using ATP Bioluminescence Assay Kit CLS II (Roche) following manufacturer's instruction.

[6] = system: control osteosarcoma cells and LHON mutant (11778 G>A) cells; assay: Validation of complex I-driven ATP synthesis assay with substrates and inhibitors of mitochondrial complexes; format: cell-based; conditions: for mitochondrial ATP synthesis: inhibitor at 1 μM, malate/pyruvate substrates, permeabilized cells
From the text: The data is presented as ATP synthesis rate+standard deviation from one representative experiment.

[7] = system: 11778(G>A) mutant cybrids; assay: Effect of rotenone on complex I-driven ATP synthesis in mutant vs control osteosarcoma cybrids; format: cell-based
From the text: as §3
Among the various LHON-associated mutations, 11778(G>A) mutation encoding ND4 subunit of mitochondrial complex I is the most prevalent and the most severe (Oostra et al., J Med Genet, 1994, 31, 280-286). It has been previously hypothesized that some external stress factors are responsible for the precipitation of vision loss in LHON (Chalmers et al., Biochimica et Biophysica Acta, 1999, 1410, 147-158). To understand the 11778(G>A) mutant mitochondrial functionality under stress, we evaluated the effect of a complex I inhibitor on complex I-driven ATP synthesis using an osteosarcoma cybrid model (FIG. 11A).
Measurement of complex I-driven ATP synthesis: The cybrid cells were seeded at 50000 cells/well in 100 μL of medium, in a white, opaque-bottom, 96-well plate coated with poly-D-lysine (Corning) and was incubated at 37° C. overnight. […] After 2 hr incubation at 37° C., the medium from the plates were aspirated using an automatic plate washer (Biotek) and complex I-driven ATP synthesis was measured following the protocol of Yoshida and Fujikawa (Fujikawa et al., Biochemical and Biophysical Research Communications, 2010, 401, 538-543). […]

[8] = system: inflammatory genes in retinas of Ndufs4 KO mice; assay: qRT-PCR of inflammatory genes in retinas after rapamycin treatment (Example 1); format: in vivo, mouse; conditions: rapamycin 8 mg/kg intraperitoneally for 9 days
Description: FIG. 6 depicts an experimental reversal of inflammatory gene induction by rapamycin. White bars, a mean increase in transcript level of 16/16 inflammatory markers was observed by qRT-PCR in retinas of Ndufs4 KO mice compared to wild type. […] Statistical significance determined by student's t test. * P<0.05, ** P<0.01.
Rapamycin was dissolved in DMSO to 100 mg/mL. This was diluted in 5% PEG-400/5% Tween-20 (vehicle) to a concentration of 0.6 mg/mL, sterile filtered, and stored at −80 for long-term storage. Rapamycin treated mice were injected with 132 microliters/10 g body weight for a final dose of 8.0 mg/kg (Johnson et al., Science, 2013, 342, 1524-1528). Vehicle mice were injected with equal volume of PBS and DMSO lacking rapamycin. […]
The change in PCR products as the reaction proceeded was monitored by SYBR green dye (Invitrogen, Grand Island, N.Y.). […] Quantification cycle (Cq) values obtained by the Lightcycler were analyzed by normalizing the values to the reference genes and delta Cq values were calculated to determine relative gene expression values compared to wild type. Delta delta Cq was also calculated to determine the fold change difference between Ndufs4 knockout and wild type. Significance, p<0.05 was determined using two sample independent student's t-test statistics with equal sample size and assuming equal variance.

[9] = 20 h; read-out: Fold change of ATP synthesis rate greater than 2x Median Absolution Deviation

Cc1ccc(-c2nc3ccc(C)cn3c2CC(=O)N(C)C)cc1 [zolpidem]
microglia activation (Ndufs4 KO mice [1]): decrease in microglia activation | innate immune/inflammatory gene expression (B2m, Tlr2, Cxcl10, Ccl5, Aif1) in retina [2]: significantly inhibited a portion of the innate immune/inflammatory response | fold induction at 10 µM (LHON cybrids (11778 G>A); 20 h, read-out: Fold change of ATP synthesis rate greater than 2x Median Absolution Deviation): 1.4 | reversal of rotenone sensitivity of complex I-driven ATP synthesis (LHON cybrids (11778 G>A); different concentrations of drug 22 h, then rotenone 0.03 μM 2 h): dose-dependently reversed the rotenone-sensitivity | ATP synthesis rate relative to vehicle-treated cells after rotenone (LHON cybrids (11778 G>A); zolpidem 30 μM pre-treatment; rotenone 0.03 μM): 2 times | ATP synthesis rate compared to vehicle pre-treated cells (LHON cybrids (11778 G>A); zolpidem 3, 10, and 30 μM pre-treatment; rotenone 0.03 μM): significantly higher ATP synthesis rate | ratio of mtDNA/nDNA [3]: did not significantly change the ratio of mtDNA/nDNA | starburst amacrine cell loss (Ndufs4 KO mice [4]): significant protection of startburst amacrine cells from apoptosis | visual function (median # edge detections) (Ndufs4 knockout mice): visual function was preserved | ratio of mtDNA/nDNA (control healthy cybrid): did not significantly change the ratio of mtDNA/nDNA

C=C(C)[C@H]1Cc2c(ccc3c2O[C@@H]2COc4cc(OC)c(OC)cc4[C@@H]2C3=O)O1 [rotenone]
differential effect of rotenone on mutant vs control ATP synthesis [5]: clearly reproducible | mitochondrial ATP synthesis [6]: inhibited the mitochondrial ATP synthesis | rotenone-dependent ATP synthesis defect across 11778, 3460 and 14484 mutant cybrids ([7]; 3 most common LHON mutations in cybrids): directly in proportion to the severity of the disease in humans | sensitivity of complex I-driven ATP synthesis to rotenone ([7]; rotenone 0.001 μM-1 μM, 24 h, mutant clones HCT22, HFF3 vs control HGA2, H1959): highly sensitive to rotenone when compared to control

CO[C@H]1C[C@@H]2CC[C@@H](C)[C@@](O)(O2)C(=O)C(=O)N2CCCC[C@H]2C(=O)O[C@H]([C@H](C)C[C@@H]2CC[C@@H](O)[C@H](OC)C2)CC(=O)[C@H](C)/C=C(\C)[C@@H](O)[C@@H](OC)C(=O)[C@H](C)C[C@H](C)/C=C/C=C/C=C/1C [rapamycin]
transcripts with inhibition of mean amplitude of induction of inflammatory genes [8]: 16/16

O=S(=O)(NCCNC/C=C/c1ccc(Br)cc1)c1cccc2cnccc12 [H89]
effect of H89 on rotenone rescue effect of zolpidem (LHON cybrids (11778 G>A); H89 3 μM with zolpidem 30 μM): reversed the rotenone rescue effect of zolpidem | effect of PKA inhibitor on papaverine's protection from rotenone (LHON cybrids (11778 G>A); papaverine 30 μM and H89 3 μM for 22 h, then rotenone 0.03 μM 2 h): did not decrease papaverine's ability to protect from rotenone

CN1CCc2cc3c(cc2[C@H]1[C@@H]1OC(=O)c2c1ccc1c2OCO1)OCO3 [bicuculine, bicuculline]
effect of GABAA antagonist on reversal of rotenone inhibition by zolpidem (LHON cybrids (11778 G>A); zolpidem 30 μM and bicuculline 30 μM for 22 h, then rotenone 0.03 μM 2 h): no significant effect

CC[C@H]1/C=C/C=C/C[C@@H](C)[C@H](O)[C@@](C)(O)C(=O)[C@@H](C)[C@H](O)[C@@H](C)C(=O)[C@@H](C)[C@H](O)[C@@H](C)/C=C/C(=O)O[C@@H]2[C@H](C)[C@H](CC1)O[C@]1(CC[C@H](C)[C@H](C[C@@H](C)O)O1)[C@H]2C [oligomycin]
mitochondrial ATP synthesis [6]: inhibited the mitochondrial ATP synthesis

C1N2CN3CN1CN(C2)C3 [Methenamine, methenamine]
fold induction at 10 µM (LHON cybrids (11778 G>A); [9]): 1.3

COc1ccc(OC)c(C(O)C(C)N)c1 (stereo not shown) [Methoxamine HCl, 2-amino-1-(2,5-dimethoxyphenyl)-1-propanol]
fold induction at 10 µM (LHON cybrids (11778 G>A); [9]): 1.4

antimycin A
mitochondrial ATP synthesis [6]: inhibited the mitochondrial ATP synthesis

CN(Cc1cnc2nc(N)nc(N)c2n1)c1ccc(C(=O)N[C@@H](CCC(=O)O)C(=O)O)cc1 [Methotrexate, methotrexate]
fold induction at 10 µM (LHON cybrids (11778 G>A); [9]): 1.2

O=c1[nH]cc(F)c(=O)[nH]1 [Fluorouracil, 5-fluorouracil]
fold induction at 10 µM (LHON cybrids (11778 G>A); [9]): 1.1

COC1=C(OC)C(=O)C(CCCCCCCCCCO)=C(C)C1=O [idebenone]
innate immune/inflammatory gene expression (B2m, Tlr2, Cxcl10, Ccl5, Aif1) in retina [2]: significantly inhibited a portion of the innate immune/inflammatory response | visual function (median # edge detections) (Ndufs4 knockout mice): not significant

O=C(O)CCC(=O)O [succinate]
reversal of inhibitor-induced inhibition of ATP synthesis ([6]; succinate 5 mM vs rotenone, ascorbate/TMPD vs antimycin): reversed

Cn1cnc([N+](=O)[O-])c1Sc1ncnc2nc[nH]c12 [Azathioprine, azathioprine]
fold induction at 10 µM (LHON cybrids (11778 G>A); [9]): 1.4
